Starred links: 1 amine or outer side, 2 acyl side, 3 side chain; linkers in the order of their positions; H or OH if unused. Positions of bridges follow the written chain, without caps; N, C: chain ends. Non-standard residues stand in square brackets, D forms with d. Residues, ends and D or L forms follow the SMILES beside them. Chains are numbered I, II in the order given. Actinocin(9to1) = Cc1c2oc3c(C)ccc(C(=O)[*:1])c3nc-2c(C(=O)[*:2])c(N)c1=O; NMeV = CN[C@H](C(=O)O)C(C)C; Sar = CNCC(=O)O
Species on record: Rattus norvegicus
Assay: DrugMatrix - Regimen: Daily Repeat
Assay type: toxicity, organism-based, Sprague-Dawley
Set-up: regimen Daily Repeat, gender Male, age 6-8 weeks
Conditions: in vivo, iv, vehicle 100 % SALINE; for ABSOLUTE BASOPHIL / ABSOLUTE EOSINOPHIL / ABSOLUTE LYMPHOCYTE / ABSOLUTE MONOCYTE / ABSOLUTE SEGMENTED NEUTROPHIL / BASOPHIL / EOSINOPHIL / ERYTHROCYTE COUNT / HEMATOCRIT / HEMOGLOBIN / LEUKOCYTE COUNT / LYMPHOCYTE / MEAN CORPUSCULAR HEMOGLOBIN / MEAN CORPUSCULAR HEMOGLOBIN CONCENTRATION / MEAN CORPUSCULAR VOLUME / MONOCYTE / NEUTROPHIL / NUCLEATED RED BLOOD CELLS / PLATELET COUNT: tissue Blood; for ALANINE AMINOTRANSFERASE / ALBUMIN / ALKALINE PHOSPHATASE / ASPARTATE AMINOTRANSFERASE / BLOOD UREA NITROGEN / CARBON DIOXIDE / CHLORIDE / CHOLESTEROL / CREATINE PHOSPHOKINASE / CREATININE / GLUCOSE / LACTATE DEHYDROGENASE / LIPASE / PHOSPHORUS / POTASSIUM / SODIUM / TOTAL BILIRUBIN / TOTAL PROTEIN / URIC ACID: tissue Plasma
[1] = 0.006 mg/kg, 120 h, dose level Low, time 5 day
[2] = 0.06 mg/kg, 72 h, dose level High, time 3 day
[3] = 0.06 mg/kg, 120 h, dose level High, time 5 day

## Cc1c2oc3c(C)ccc(C(=O)N[C@@H]4C(=O)N[C@H](C(C)C)C(=O)N5CCC[C@H]5C(=O)N(C)CC(=O)N(C)[C@@H](C(C)C)C(=O)O[C@@H]4C)c3nc-2c(C(=O)N[C@@H]2C(=O)N[C@H](C(C)C)C(=O)N3CCC[C@H]3C(=O)N(C)CC(=O)N(C)[C@@H](C(C)C)C(=O)O[C@@H]2C)c(N)c1=O [DACTINOMYCIN] (I: T[dV]P[Sar][NMeV] / II: T[dV]P[Sar][NMeV]; ester I:1-I:C, II:1-II:C; linker I:N-II:N via Actinocin(9to1))
[1]
  ABSOLUTE BASOPHIL: 0 CELLS/uL
  ABSOLUTE EOSINOPHIL: 221.33 CELLS/uL
  ABSOLUTE LYMPHOCYTE: 12705.67 CELLS/uL
  ABSOLUTE MONOCYTE: 103.33 CELLS/uL
  ABSOLUTE SEGMENTED NEUTROPHIL: 1369.67 CELLS/uL
  BASOPHIL: 0%
  EOSINOPHIL: 1.33%
  ERYTHROCYTE COUNT: 5.39 x10E6/uL
  HEMATOCRIT: 33.7%
  HEMOGLOBIN: 13.67 G/DL
  LEUKOCYTE COUNT: 14.4 x10E3/uL
  LYMPHOCYTE: 88.67%
  MEAN CORPUSCULAR HEMOGLOBIN: 25.37 pg
  MEAN CORPUSCULAR HEMOGLOBIN CONCENTRATION: 40.57 G/DL
  MEAN CORPUSCULAR VOLUME: 62.57 fL
  MONOCYTE: 0.67%
  NEUTROPHIL: 9.33%
  NUCLEATED RED BLOOD CELLS: 0 /100WBC
  PLATELET COUNT: 1209 x10E3/uL
  ALANINE AMINOTRANSFERASE: 51 u/L
  ALBUMIN: 4.1 G/DL
  ALKALINE PHOSPHATASE: 297 u/L
  ASPARTATE AMINOTRANSFERASE: 130.67 u/L
  BLOOD UREA NITROGEN: 15 mg/dL
  CARBON DIOXIDE: 27.33 mmol/L
  CHLORIDE: 102 MEQ/L
  CHOLESTEROL: 77 mg/dL
  CREATINE PHOSPHOKINASE: 1455.33 u/L
  CREATININE: 0.22 mg/dL
  GLUCOSE: 155.33 mg/dL
  LACTATE DEHYDROGENASE: 798.33 u/L
  LIPASE: 10.33 u/L
  PHOSPHORUS: 11.03 mg/dL
  POTASSIUM: 5.31 MEQ/L
  SODIUM: 143.1 MEQ/L
  TOTAL BILIRUBIN: 0.17 mg/dL
  TOTAL PROTEIN: 6.13 G/DL
  URIC ACID: 1.37 mg/dL
[2]
  ABSOLUTE BASOPHIL: 0 CELLS/uL
  ABSOLUTE EOSINOPHIL: 0 CELLS/uL
  ABSOLUTE LYMPHOCYTE: 13952.33 CELLS/uL
  ABSOLUTE MONOCYTE: 166 CELLS/uL
  ABSOLUTE SEGMENTED NEUTROPHIL: 748.33 CELLS/uL
  BASOPHIL: 0%
  EOSINOPHIL: 0%
  ERYTHROCYTE COUNT: 5.81 x10E6/uL
  HEMATOCRIT: 35.17%
  HEMOGLOBIN: 13.97 G/DL
  LEUKOCYTE COUNT: 14.87 x10E3/uL
  LYMPHOCYTE: 93.67%
  MEAN CORPUSCULAR HEMOGLOBIN: 24.13 pg
  MEAN CORPUSCULAR HEMOGLOBIN CONCENTRATION: 39.8 G/DL
  MEAN CORPUSCULAR VOLUME: 60.7 fL
  MONOCYTE: 1%
  NEUTROPHIL: 5.33%
  NUCLEATED RED BLOOD CELLS: 0 /100WBC
  PLATELET COUNT: 1121.67 x10E3/uL
  ALANINE AMINOTRANSFERASE: 41.67 u/L
  ALBUMIN: 4.4 G/DL
  ALKALINE PHOSPHATASE: 262.67 u/L
  ASPARTATE AMINOTRANSFERASE: 85.33 u/L
  BLOOD UREA NITROGEN: 15.67 mg/dL
  CARBON DIOXIDE: 26 mmol/L
  CHLORIDE: 99.67 MEQ/L
  CHOLESTEROL: 81.33 mg/dL
  CREATINE PHOSPHOKINASE: 562.67 u/L
  CREATININE: 0.16 mg/dL
  GLUCOSE: 154.33 mg/dL
  LACTATE DEHYDROGENASE: 357.33 u/L
  LIPASE: 10.33 u/L
  PHOSPHORUS: 11.93 mg/dL
  POTASSIUM: 6.38 MEQ/L
  SODIUM: 140.17 MEQ/L
  TOTAL BILIRUBIN: 0.2 mg/dL
  TOTAL PROTEIN: 6.13 G/DL
  URIC ACID: 1.6 mg/dL
[3]
  ABSOLUTE BASOPHIL: 0 CELLS/uL
  ABSOLUTE EOSINOPHIL: 0 CELLS/uL
  ABSOLUTE LYMPHOCYTE: 13429.67 CELLS/uL
  ABSOLUTE MONOCYTE: 267.67 CELLS/uL
  ABSOLUTE SEGMENTED NEUTROPHIL: 1069.33 CELLS/uL
  BASOPHIL: 0%
  EOSINOPHIL: 0%
  ERYTHROCYTE COUNT: 5.63 x10E6/uL
  HEMATOCRIT: 35%
  HEMOGLOBIN: 13.77 G/DL
  LEUKOCYTE COUNT: 14.77 x10E3/uL
  LYMPHOCYTE: 90.67%
  MEAN CORPUSCULAR HEMOGLOBIN: 24.5 pg
  MEAN CORPUSCULAR HEMOGLOBIN CONCENTRATION: 39.37 G/DL
  MEAN CORPUSCULAR VOLUME: 62.17 fL
  MONOCYTE: 1.67%
  NEUTROPHIL: 7.67%
  NUCLEATED RED BLOOD CELLS: 0 /100WBC
  PLATELET COUNT: 1163.67 x10E3/uL
  ALANINE AMINOTRANSFERASE: 41 u/L
  ALBUMIN: 4.2 G/DL
  ALKALINE PHOSPHATASE: 279.33 u/L
  ASPARTATE AMINOTRANSFERASE: 79.33 u/L
  BLOOD UREA NITROGEN: 19.33 mg/dL
  CARBON DIOXIDE: 29 mmol/L
  CHLORIDE: 99.67 MEQ/L
  CHOLESTEROL: 62.33 mg/dL
  CREATINE PHOSPHOKINASE: 327.33 u/L
  CREATININE: 0.23 mg/dL
  GLUCOSE: 148.67 mg/dL
  LACTATE DEHYDROGENASE: 429.67 u/L
  LIPASE: 10 u/L
  PHOSPHORUS: 12.3 mg/dL
  POTASSIUM: 6.67 MEQ/L
  SODIUM: 140.87 MEQ/L
  TOTAL BILIRUBIN: 0.23 mg/dL
  TOTAL PROTEIN: 6.2 G/DL
  URIC ACID: 1.7 mg/dL

From ChEMBL document CHEMBL3885881, “DrugMatrix”
